Test results reported in patent US20240343722A1 (VIFOR (INTERNATIONAL) AG, priority 2021, published 2024).

Biological target: T1, ferroportin (Fpn) (Mus musculus, UniProt Q9JHI9)
T1 construct: endogenous in cells; host or cells: J774 mouse macrophage cell line, induced with Fe(III)NTA
T1 sequence (Q9JHI9 1-570): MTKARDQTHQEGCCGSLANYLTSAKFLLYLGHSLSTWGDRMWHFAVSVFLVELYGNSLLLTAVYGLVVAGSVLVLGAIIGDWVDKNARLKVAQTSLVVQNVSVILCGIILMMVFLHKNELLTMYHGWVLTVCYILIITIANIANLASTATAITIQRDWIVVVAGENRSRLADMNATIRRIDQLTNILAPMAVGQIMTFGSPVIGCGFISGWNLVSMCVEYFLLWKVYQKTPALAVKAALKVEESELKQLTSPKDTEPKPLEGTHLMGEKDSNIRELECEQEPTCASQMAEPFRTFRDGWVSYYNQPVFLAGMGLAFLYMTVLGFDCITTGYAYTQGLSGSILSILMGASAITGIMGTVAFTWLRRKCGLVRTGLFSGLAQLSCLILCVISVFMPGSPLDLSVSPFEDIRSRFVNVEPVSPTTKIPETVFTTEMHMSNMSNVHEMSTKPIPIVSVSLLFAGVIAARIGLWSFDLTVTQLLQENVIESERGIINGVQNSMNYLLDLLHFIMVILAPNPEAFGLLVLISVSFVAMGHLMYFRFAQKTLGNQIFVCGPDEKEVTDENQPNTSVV
Assay: Hepcidin Internalization Assay (J774)
Format: cell-based
Details: Average (AVE) IC50 of multiple measurements; inhibition of TMR-hepcidin (25 nM) internalization into J774 cells
Source text: This cellular assay allows quantification of the binding of hepcidin to ferroportin (Fpn) through microscopic detection of internalization of a fluorescently labeled hepcidin into J774 cells. […] Binding of hepcidin to Fpn triggers internalization and degradation of both hepcidin and Fpn. […] Therefore, microscopic detection of cell-associated TMR fluorescence is a measure of hepcidin binding to Fpn and internalization of hepcidin and Fpn. If TMR-hepcidin is prevented from binding to Fpn, cellular TMR fluorescence remains low (Durrenberger et al, 2013). The effect of small molecular weight Fpn inhibitor compounds in this assay was evaluated in vitro as described below. […] After removal of the paraformaldehyde solution, cells were washed 3 times with PBS leaving 100 μl per well and the plates were sealed with foil plate seal. TMR (530-550 nm excitation/575-625 nm emission/400 ms exposure time) and Hoechst 33342 (360-370 nm excitation/420-460 nm emission /10 ms exposure time) fluorescence images were acquired using a […] imager (Olympus) with a 20× high NA objective. […] The acquired image data was analysed with the […] analysis software. […] IC50 values were calculated with the Sum(Mean) raw data using “log(inhibitor) vs. response” curve fitting of Prism 5 software (GraphPad Software Inc., version 5.02). For each data set the fit of the “log(inhibitor) vs. response (three parameters)” model was compared to the fit of the “log(inhibitor) vs. response - Variable slope (four parameters)” model and the IC50 data of the preferred model was used.

Structure (SMILES)	IC50 [nM]
O=C(NCc1ncccc1F)c1coc(CCNCCc2nc3cc4c(cc3n2CC(F)F)OCCO4)n1 [Example 71, 2-(2-((2-(1-(2,2-difluoroethyl)-6,7-dihydro-1 H-[1,4]dioxino[2′,3′:4,5]benzo[1,2-d]imidazol-2-yl)ethyl)amino)ethyl)-N-((3-fluoropyridin-2-yl)methyl)oxazole-4-carboxamide]	7
COc1cccc(-n2c(CCNCCc3nc(C(=O)NCc4ncccc4F)co3)nc3cc(OC)c(OC)cc32)c1 [Example 72, 2-(2-((2-(5,6-dimethoxy-1-(3-methoxyphenyl)-1H-benzo[d]imidazol-2-yl)ethyl)amino)ethyl)-N-((3-fluoropyridin-2-yl)methyl)oxazole-4-carboxamide]	35
CC(C)OCCn1c(CCNCCc2nc(C(=O)NCc3ncccc3F)co2)nc2cc3c(cc21)OCCO3 [Example 73, N-((3-fluoropyridin-2-yl)methyl)-2-(2-((2-(1-(2-isopropoxyethyl)-6,7-dihydro-1 H-[1,4]dioxino[2′,3′:4,5]benzo[1,2-d]imidazol-2-yl)ethyl)amino)ethyl)oxazole-4-carboxamide]	2.6
O=C(NCc1ncccc1F)c1coc(CCNCCc2nc3cc4c(cc3n2CCN2CCCCC2)OCCO4)n1 [Example 74, N-((3-fluoropyridin-2-yl)methyl)-2-(2-((2-(1-(2-(piperidin-1-yl)ethyl)-6,7-dihydro-1H-[1,4]dioxino[2′,3′:4,5]benzo[1,2-d]imidazol-2-yl)ethyl)amino)ethyl)oxazole-4-carboxamide]	4.9
COc1cccc(-n2c(CCNCCc3nc(C(=O)NCc4ncccc4F)co3)nc3cc4c(cc32)OCO4)c1 [Example 75, N-((3-fluoropyridin-2-yl)methyl)-2-(2-((2-(5-(3-methoxyphenyl)-5H-[1,3]dioxolo[4′,5′:4,5]benzo[1,2-d]imidazol-6-yl)ethyl)amino)ethyl)oxazole-4-carboxamide]	1.3
COc1cccnc1CNC(=O)c1coc(CCNCCc2nc3cc4c(cc3n2CCN(C)C)OCCO4)n1 [Example 76, 2-(2-((2-(1-(2-(dimethylamino)ethyl)-6,7-dihydro-1 H-[1,4]dioxino[2′,3′:4,5]benzo[1,2-d]imidazol-2-yl)ethyl)amino)ethyl)-N-((3-methoxypyridin-2-yl)methyl)oxazole-4-carboxamide]	13
CN(C)CCn1c(CCNCCc2nc(C(=O)NCc3ncccc3F)co2)nc2cc3c(cc21)OCCO3 [Example 77, 2-(2-((2-(1-(2-(dimethylamino)ethyl)-6,7-dihydro-1 H-[1,4]dioxino[2′,3′:4,5]benzo[1,2-d]imidazol-2-yl)ethyl)amino)ethyl)-N-((3-fluoropyridin-2-yl)methyl)oxazole-4-carboxamide]	5.1
O=C(NCc1ncccc1F)c1coc(CCNCCc2nc3cc4c(cc3n2CCN2CCOCC2)OCCO4)n1 [Example 81, N-((3-fluoropyridin-2-yl)methyl)-2-(2-((2-(1-(2-morpholinoethyl)-6,7-dihydro-1 H-[1,4]dioxino[2′,3′:4,5]benzo[1,2-d]imidazol-2-yl)ethyl)amino)ethyl)oxazole-4-carboxamide]	4
O=C(NCc1ncccc1F)c1coc(CCNCCc2nc3cc4c(cc3n2-c2ccccc2)OCO4)n1 [Example 82, N-((3-fluoropyridin-2-yl)methyl)-2-(2-((2-(5-phenyl-5H-[1,3]dioxolo[4′,5′:4,5]benzo[1,2-d]imidazol-6-yl)ethyl)amino)ethyl)oxazole-4-carboxamide]	2
O=C(NCc1ncccc1F)c1coc(CCNCCc2nc3cc4c(cc3n2-c2ccccc2)OCCO4)n1 [Example 83, N-((3-fluoropyridin-2-yl)methyl)-2-(2-((2-(1-phenyl-6,7-dihydro-1 H-[1,4]dioxino[2′,3′:4,5]benzo[1,2-d]imidazol-2-yl)ethyl)amino)ethyl)oxazole-4-carboxamide]	1.9
CN1CCN(CCn2c(CCNCCc3nc(C(=O)NCc4ncccc4F)co3)nc3cc4c(cc32)OCCO4)CC1 [Example 84, N-((3-fluoropyridin-2-yl)methyl)-2-(2-((2-(1-(2-(4-methylpiperazin-1-yl)ethyl)-6,7-dihydro-1H-[1,4]dioxino[2′,3′:4,5]benzo[1,2-d]imidazol-2-yl)ethyl)amino)ethyl)oxazole-4-carboxamide]	150
O=C(NCc1ncccc1F)c1coc(CCNCCc2nc3cc(C#Cc4ccccn4)ccc3n2-c2ccccc2)n1 [Example 85, N-((3-fluoropyridin-2-yl)methyl)-2-(2-((2-(1-phenyl-5-(pyridin-2-ylethynyl)-1H-benzo[d]imidazol-2-yl)ethyl)amino)ethyl)oxazole-4-carboxamide]	7.8
COCCn1c(CCNCCc2nc(C(=O)NCc3ncccc3F)co2)nc2cc(C#Cc3ccccn3)ccc21 [Example 86, N-((3-fluoropyridin-2-yl)methyl)-2-(2-((2-(1-(2-methoxyethyl)-5-(pyridin-2-ylethynyl)-1 H-benzo[d]imidazol-2-yl)ethyl)amino)ethyl)oxazole-4-carboxamide]	4.1
CCCCn1c(CCNCCc2nc(C(=O)NCc3ncccc3F)co2)nc2cc(OC)c(OC)cc21 [Example 87, 2-(2-((2-(1-butyl-5,6-dimethoxy-1 H-benzo[d]imidazol-2-yl)ethyl)amino)ethyl)-N-((3-fluoropyridin-2-yl)methyl)oxazole-4-carboxamide]	17
O=C(NCc1ncccc1F)c1coc(CCNCCc2nc3cc4c(cc3n2CCOC2CCCCC2)OCCO4)n1 [Example 88, 2-(2-((2-(1-(2-(cyclohexyloxy)ethyl)-6,7-dihydro-1H-[1,4]dioxino[2′,3′:4,5]benzo[1,2-d]imidazol-2-yl)ethyl)amino)ethyl)-N-((3-fluoropyridin-2-yl)methyl)oxazole-4-carboxamide]	0.9
O=C(NCc1ncccc1F)c1coc(CCNCCc2nc3cc(C#Cc4ccccn4)ccc3n2CC2CC2)n1 [Example 89, 2-(2-((2-(1-(cyclopropylmethyl)-5-(pyridin-2-ylethynyl)-1 H-benzo[d]imidazol-2-yl)ethyl)amino)ethyl)-N-((3-fluoropyridin-2-yl)methyl)oxazole-4-carboxamide]	4
COc1ccc(-n2c(CCNCCc3nc(C(=O)NCc4ncccc4F)co3)nc3cc(OC)c(OC)cc32)cc1OC [Example 90, 2-(2-((2-(1-(3,4-dimethoxyphenyl)-5,6-dimethoxy-1 H-benzo[d]imidazol-2-yl)ethyl)amino)ethyl)-N-((3-fluoropyridin-2-yl)methyl)oxazole-4-carboxamide]	39
COc1cccnc1CNC(=O)c1coc(CCNCCc2nc3cc4c(cc3n2CCOC2CCCCC2)OCCO4)n1 [Example 91, 2-(2-((2-(1-(2-(cyclohexyloxy)ethyl)-6,7-dihydro-1H-[1,4]dioxino[2′,3′:4,5]benzo[1,2-d]imidazol-2-yl)ethyl)amino)ethyl)-N-((3-methoxypyridin-2-yl)methyl)oxazole-4-carboxamide]	2
COc1cccc(-n2c(CCNCCc3nc(C(=O)NCc4ncccc4F)co3)nc3cc4c(cc32)OCCO4)c1 [Example 92, N-((3-fluoropyridin-2-yl)methyl)-2-(2-((2-(1-(3-methoxyphenyl)-6,7-dihydro-1 H-[1,4]dioxino[2′,3′:4,5]benzo[1,2-d]imidazol-2-yl)ethyl)amino)ethyl)oxazole-4-carboxamide]	2
COc1cccc(-n2c(CCNCCc3nc(C(=O)NCc4ncccc4OC)co3)nc3cc4c(cc32)OCCO4)c1 [Example 93, 2-(2-((2-(1-(3-methoxyphenyl)-6,7-dihydro-1 H-[1,4]dioxino[2′,3′:4,5]benzo[1,2-d]imidazol-2-yl)ethyl)amino)ethyl)-N-((3-methoxypyridin-2-yl)methyl)oxazole-4-carboxamide]	3
O=C(NCc1ncccc1F)c1coc(CCNCCc2nc3cc4c(cc3n2CCc2ncco2)OCCO4)n1 [Example 94, N-((3-fluoropyridin-2-yl)methyl)-2-(2-((2-(1-(2-(oxazol-2-yl)ethyl)-6,7-dihydro-1 H-[1,4]dioxino[2′,3′:4,5]benzo[1,2-d]imidazol-2-yl)ethyl)amino)ethyl)oxazole-4-carboxamide]	365
